Data on two compounds can be found in ChEMBL document CHEMBL1150077, “Phospholipase D inhibitors from a Myrsine species” (J Nat Prod, 1995).

Molecules are shown by their SMILES.

Experiment [1] can be described thus: Inhibition of fMLP-stimulated phospholipase D in human HL60 cells. Type of experiment: cell-based. As to conditions: hl-60.
Experiment [2] can be described thus: Inhibition of PMA-stimulated phospholipase D in human HL60 cells. It counts as cell-based. As to conditions: hl-60.

With `C[C@H]1O[C@@H](O[C@H]2[C@H](O[C@H]3CO[C@@H](O[C@H]4CC[C@]5(C)[C@H]6CC[C@]78OC[C@@]9(CCC(C)(C)C[C@H]97)[C@H](O)C[C@@]8(C)[C@]6(C)CC[C@H]5C4(C)C)[C@H](O[C@@H]4O[C@H](CO)[C@@H](O)[C@H](O)[C@H]4O)[C@H]3O)O[C@H](CO)[C@@H](O)[C@@H]2O)[C@@H](O)[C@@H](O)[C@@H]1O`, the figures for the IC50 in experiment [1] and in experiment [2] were 24 µM and 2 µM, respectively.
With `CC1(C)CC[C@]23CO[C@@]4(CC[C@@H]5[C@@]6(C)CC[C@H](O[C@@H]7OC[C@H](O[C@@H]8O[C@H](CO)[C@@H](O)[C@H](O)[C@H]8O[C@@H]8OC[C@@H](O)[C@H](O)[C@H]8O)[C@H](O)[C@H]7O[C@@H]7O[C@H](CO)[C@@H](O)[C@H](O)[C@H]7O)C(C)(C)[C@@H]6CC[C@@]5(C)[C@]4(C)C[C@H]2O)[C@@H]3C1` [LYSIKOKIANOSIDE 1], the results for the IC50 in experiment [1] and in experiment [2] were 8 µM and 3 µM, respectively.
